Measurements published in US4128629A, “Extraction-free cortisol assay” (Corning Glass Works, priority 1977, dated 1978).
“And” between values parts separate entries of the source, which are not always exact repeats. Identical values can stand only once.

System: anticortisol antibody composite
Assay: Cross-reactivity (specificity) of the solid phase cortisol radioimmunoassay
Assay type: binding
Parameters: key: ratio of cortisol to cross-reactant amount at 50% displacement
Settings: ratio of the cortisol level to the steroid level at fifty percent relative displacement of labeled cortisol from immobilized anti-cortisol antibody
Description: (§1) A lyophilized mixture of the tracer (about 50,000 DPM), 200 μg of ANS, and PBS is reconstituted to a 100 μl solution with water in an identified glass test tube to which is pipetted a […] serum sample having an unknown cortisol concentration. A non-interferring red dye such as Durkees Staff Brand may be included with the tracer solution to indicate that presence of the tracer.
(§2) Then, a 1 ml suspension of the immobilized antibodies (0.20 mg of anti-cortisol antibodies chemically coupled via N-hydroxysuccinimide linkage to silanized glass particles having an average particle size of about 1.7 microns is pipetted into the tube. The tube is vortexed for 2 or 3 seconds, allowing the composite of immobilized antibodies to be suspended. The reaction tube is incubated for about 1 hour at room temperature. The tube is then centrifuged for about 10 minutes at about 1400 to 1600 gravities (g). The relatively high density of the glass support facilitates this separation step. After centrifugation, the supernatant fluid is decanted and it or the composite at the bottom of the tube is counted for radioactivity. Since the amount of radioactivity in disintegrations per minute (DPM) of the initial tracer was known, the amount associated with the composite (that which competed with the unknown cortisol for sites on the composite), provides an indication of the cortisol present, using known correlation techniques.
The cross-reactivity of the anticortisol antibody composite for a substance may be expressed as the ratio of the amount of cortisol required to displace 50% of the labeled antigen from the antibody, to the amount of cross-reacting substance needed to cause a similar displacement.

Row | Structure (SMILES) | Ratio of Cross Reactivity
1 | C[C@]12CCC(=O)C[C@@H]1CC[C@@H]1[C@@H]2CC[C@]2(C)[C@@H](O)CC[C@@H]12 [5α-Dihydrotestosterone] | 0.007
2 | C[C@]12CC[C@H]3[C@@H](CCC4=CC(=O)CC[C@@]43C)[C@@H]1CC[C@@H]2C(=O)CO [11-Desoxycorticosterone] | 0.10
3 | C[C@]12CCC(=O)C=C1CC[C@@H]1[C@@H]2CC[C@@]2(C)[C@H]1CC[C@]2(O)C(=O)CO [11-Desoxycortisol] | 0.11
4 | CC(=O)[C@@]1(O)CC[C@H]2[C@@H]3CCC4=CC(=O)CC[C@]4(C)[C@H]3CC[C@@]21C [17α-Hydroxyprogesterone] | 0.026
5 | C[C@@H](O)[C@H]1CC[C@H]2[C@@H]3CCC4=CC(=O)CC[C@]4(C)[C@H]3CC[C@]12C [20β-Hydroxyprogesterone] | 0.026
6 | C[C@]12CCC(=O)C=C1CC[C@@H]1[C@@H]2CC[C@]2(C)C(=O)CC[C@@H]12 [Androstenedione] | < 0.004
7 | CC(C)CCC[C@@H](C)[C@H]1CC[C@H]2[C@@H]3CC=C4C[C@@H](O)CC[C@]4(C)[C@H]3CC[C@]12C [Cholesterol] | < 0.001
8 | C[C@]12C[C@H](O)[C@H]3[C@@H](CCC4=CC(=O)CC[C@@]43C)[C@@H]1CC[C@@H]2C(=O)CO [Corticosterone] | 0.12
9 | C[C@]12CCC(=O)C=C1CC[C@@H]1[C@@H]2[C@@H](O)C[C@@]2(C)[C@H]1CC[C@]2(O)C(=O)CO [Cortisol] | 1.00
10 | C[C@]12CCC(=O)C=C1CC[C@@H]1[C@@H]2C(=O)C[C@@]2(C)[C@H]1CC[C@]2(O)C(=O)CO [Cortisone] | 0.008
11 | C[C@]12CC[C@@H]3c4ccc(O)cc4CC[C@H]3[C@@H]1CC[C@@H]2O [Estradiol-17β] | < 0.001
12 | C[C@]12CC[C@@H]3c4ccc(O)cc4CC[C@H]3[C@@H]1C[C@@H](O)[C@@H]2O [Estriol] | < 0.001
13 | C[C@]12CC[C@@H]3c4ccc(O)cc4CC[C@H]3[C@@H]1CCC2=O [Estrone] | < 0.001
14 | C[C@]12C=CC(=O)C=C1CC[C@@H]1[C@@H]2[C@@H](O)C[C@@]2(C)[C@H]1CC[C@]2(O)C(=O)CO [Prednisolone] | 0.10
15 | C[C@]12C=CC(=O)C=C1CC[C@@H]1[C@@H]2C(=O)C[C@@]2(C)[C@H]1CC[C@]2(O)C(=O)CO [Prednisone] | 0.004
16 | CC(=O)[C@H]1CC[C@H]2[C@@H]3CCC4=CC(=O)CC[C@]4(C)[C@H]3CC[C@]12C [Progesterone] | 0.041
17 | C[C@]12CC[C@H]3[C@@H](CCC4=CC(=O)CC[C@@]43C)[C@@H]1CC[C@@H]2O [Testosterone] | 0.002
18 | C[C@]12CC[C@@H](O)C[C@H]1CC[C@@H]1[C@@H]2[C@@H](O)C[C@@]2(C)[C@H]1CC[C@]2(O)C(=O)CO [Tetrahydrocortisol] | < 0.001

Molecular target: T1, transcortin (TC) (Homo sapiens, UniProt P08185)
T1 sequence (P08185 23-405): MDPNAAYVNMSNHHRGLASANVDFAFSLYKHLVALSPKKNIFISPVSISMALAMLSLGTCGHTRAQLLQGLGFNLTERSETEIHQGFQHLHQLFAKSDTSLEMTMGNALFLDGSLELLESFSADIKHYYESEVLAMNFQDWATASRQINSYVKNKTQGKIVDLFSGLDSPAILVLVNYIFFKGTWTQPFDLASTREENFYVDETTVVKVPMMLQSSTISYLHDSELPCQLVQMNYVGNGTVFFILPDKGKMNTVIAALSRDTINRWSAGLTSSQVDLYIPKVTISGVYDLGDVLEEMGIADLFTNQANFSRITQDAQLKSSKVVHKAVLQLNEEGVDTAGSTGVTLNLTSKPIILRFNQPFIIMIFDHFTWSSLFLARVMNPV
Assay: Cortisol released from serum sample (release from TC) by ANS and pH, compared with heat denaturation
Settings: typical patient serum samples; one value per patient sample; compared with heating at 100° C. for about 10 min
Description: as §1
as §2, with “Since the amount of radioactivity in disintegrations per minute (DPM) of the initial tracer was known, the amount associated with the composite (that which competed with the unknown cortisol for sites on the composite), provides an indication of the cortisol present, using known correlation techniques.” left out

Row | Structure (SMILES) | Cortisol Released
19 | O=S(=O)(O)c1cccc2cccc(Nc3ccccc3)c12 [ANS, 8-anilino-1-naphthalene sulfonic acid] | 59 ng/mL and 90 ng/mL and 270 ng/mL and 465 ng/mL
